Values joined by “and” are separate entries in the source; they are usually repeats but may differ in a detail not shown here. Equal values may be shown once.
molecular target: Epidermal growth factor receptor (Homo sapiens, UniProt P00533); assay: Inhibitory activity against epidermal growth factor receptor
Sequence (P00533 whole entry): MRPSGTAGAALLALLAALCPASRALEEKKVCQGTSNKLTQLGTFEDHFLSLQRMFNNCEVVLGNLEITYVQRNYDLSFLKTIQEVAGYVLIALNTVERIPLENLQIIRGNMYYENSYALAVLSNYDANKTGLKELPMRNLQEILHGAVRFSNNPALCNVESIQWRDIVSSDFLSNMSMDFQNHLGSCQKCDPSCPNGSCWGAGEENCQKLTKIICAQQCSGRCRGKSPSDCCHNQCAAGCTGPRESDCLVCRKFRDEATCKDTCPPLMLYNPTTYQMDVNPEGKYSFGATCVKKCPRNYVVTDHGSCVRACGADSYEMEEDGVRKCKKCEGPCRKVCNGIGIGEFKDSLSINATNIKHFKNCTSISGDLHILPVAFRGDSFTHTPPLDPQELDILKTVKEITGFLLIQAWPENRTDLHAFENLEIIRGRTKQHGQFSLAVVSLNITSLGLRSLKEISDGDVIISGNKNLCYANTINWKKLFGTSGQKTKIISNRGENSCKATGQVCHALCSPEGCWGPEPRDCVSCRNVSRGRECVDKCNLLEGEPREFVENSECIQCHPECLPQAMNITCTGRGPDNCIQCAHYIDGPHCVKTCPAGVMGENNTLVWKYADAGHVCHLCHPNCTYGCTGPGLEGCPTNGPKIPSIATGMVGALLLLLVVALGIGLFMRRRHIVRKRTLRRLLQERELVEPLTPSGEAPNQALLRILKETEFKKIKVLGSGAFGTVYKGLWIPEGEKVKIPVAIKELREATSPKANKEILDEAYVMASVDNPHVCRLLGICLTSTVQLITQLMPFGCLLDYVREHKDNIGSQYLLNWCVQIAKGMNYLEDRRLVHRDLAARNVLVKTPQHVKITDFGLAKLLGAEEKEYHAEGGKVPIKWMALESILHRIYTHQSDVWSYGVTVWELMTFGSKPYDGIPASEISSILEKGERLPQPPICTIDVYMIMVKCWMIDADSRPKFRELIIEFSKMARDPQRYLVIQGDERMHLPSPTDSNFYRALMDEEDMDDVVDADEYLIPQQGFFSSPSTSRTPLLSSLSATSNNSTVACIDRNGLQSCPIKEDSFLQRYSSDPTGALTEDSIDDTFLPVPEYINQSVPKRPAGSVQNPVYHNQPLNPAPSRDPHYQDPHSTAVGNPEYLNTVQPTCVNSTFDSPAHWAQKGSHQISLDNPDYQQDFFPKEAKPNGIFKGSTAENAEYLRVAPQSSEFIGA

| SMILES | IC50 |
| --- | --- |
| CC(=O)NCCNCc1ccc(-c2cc3ncnc(Nc4ccc5[nH]ccc5c4)c3s2)cc1 | 5 nM |
| NC(=O)C1CCN(Cc2ccc(-c3cc4ncnc(Nc5ccc6[nH]ccc6c5)c4s3)cc2)CC1 | 7 nM |
| c1csc(-c2cc3nccc(Nc4ccc5[nH]ccc5c4)c3s2)c1 | 1 nM |
| c1cc(Nc2ccc3[nH]ccc3c2)c2sc(-c3ccc(CNCCN4CCNCC4)cc3)cc2n1 | 3 nM |
| OCCCNCc1ccc(-c2cc3nccc(Nc4ccc5[nH]ccc5c4)c3s2)cc1 | 9 nM |
| Cc1c[nH]c2ccc(Nc3ncnc4cc(-c5ccccc5)sc34)cc12 | 5 nM |
| CN(CCO)Cc1ccc(-c2cc3nccc(Nc4ccc5[nH]ccc5c4)c3s2)cc1 | 3 nM |
| OCc1ccc(-c2cc3ncnc(Nc4ccc5[nH]ccc5c4)c3s2)cc1 | 1 nM |
| c1cc(Nc2ccc3[nH]ccc3c2)c2sc(-c3ccc(CN4CCOCC4)cc3)cc2n1 | 30 nM |
| c1ccc(CCCN(c2cc3ncnc(Nc4ccc5[nH]ccc5c4)c3s2)n2ccnc2)cc1 | 5 nM and 1 nM |
| Cc1cc2cc(Nc3ccnc4cc(-c5ccc(CN6CCOCC6)cc5)sc34)ccc2[nH]1 | 1250 nM |

Now from value to molecule:

| IC50 | SMILES |
| --- | --- |
| 100 nM | Cc1cc2cc(Nc3ncnc4cc(-c5ccccc5)sc34)ccc2[nH]1 |
| 4 nM | NCc1ccc(-c2cc3ncnc(Nc4ccc5[nH]ccc5c4)c3s2)cc1 |
| 657 nM | Cc1cc2cc(Nc3ccnc4cc(-c5ccc(CNCCOCCO)cc5)sc34)ccc2[nH]1 |
| 1 nM and 8 nM | CC(C)(CO)NCc1ccc(-c2cc3ncnc(Nc4ccc5[nH]ccc5c4)c3s2)cc1 |
| 600 nM | c1nc(Nc2ccc3[nH]ccc3c2)c2sccc2n1 |
| 500 nM | Cc1cc2cc(Nc3ccnc4cc(-c5ccc(CNCCCO)cc5)sc34)ccc2[nH]1 |
| 2 nM | CC(=O)NCCNCc1ccc(-c2cc3nccc(Nc4ccc5[nH]ccc5c4)c3s2)cc1 |
| 1 nM | c1ccc(NCCN(c2cc3ncnc(Nc4ccc5[nH]ccc5c4)c3s2)n2cccc2)cc1 |
| 2 nM | OCCNCc1ccc(-c2cc3nccc(Nc4ccc5[nH]ccc5c4)c3s2)cc1 |
| 140 nM | Cc1cc2cc(Nc3ccnc4cc(-c5ccc(CN(C)CCO)cc5)sc34)ccc2[nH]1 |
| 1 nM | NC(=O)C1CCN(Cc2ccc(-c3cc4nccc(Nc5ccc6[nH]ccc6c5)c4s3)cc2)CC1 |
| 1000 nM | Cc1cc2cc(Nc3ccnc4cc(-c5ccc(CNCCO)cc5)sc34)ccc2[nH]1 |
| > 1000 nM | NC(=O)c1ccc(Nc2ncnc3cc(-c4ccccc4)sc23)cc1 |
| 1600 nM | c1ccc(-c2cc3ncnc(Nc4ccc5[nH]ncc5c4)c3s2)cc1 |

Reference: ChEMBL document CHEMBL1146693, “Design and SAR of thienopyrimidine and thienopyridine inhibitors of VEGFR-2 kinase activity” (Bioorg Med Chem Lett, 2004)
